Some targets named below: CDK1 CCNA2 (human) (UniProt P06493+P20248); CDK1 CCNB1 (human) (UniProt P06493+P14635); CDK2 CCNA2 (human) (UniProt P24941+P20248); CDK2 CCNE1 (human) (UniProt P24941+P24864); CDK3 CCNE1 (human) (UniProt Q00526+P24864); CDK4 CCND1 (human) (UniProt P24385+P11802); CDK4 CCND3 (human) (UniProt P30281+P11802); CDK5 CDK5R1 p25 (human) (UniProt Q00535+Q15078); CDK5 CDK5R1 p35 (human) (UniProt Q00535+Q15078); CDK6 CCND1 (human) (UniProt Q00534+P24385); CDK6 CCND3 (human) (UniProt P30281+Q00534); CDK7 CCNH MNAT1 (human) (UniProt P50613+P51948+P51946); CDK9 CCNK (human) (UniProt O75909+P50750); CDK9 CCNT1 (human) (UniProt P50750+O60563); DYRK1B (human) (UniProt Q9Y463); LTK (human) (UniProt P29376); MAP3K7 TAB1 (human) (UniProt O43318+Q15750); PRKCH (human) (UniProt P24723); STK33 (human) (UniProt Q9BYT3).

Holding throughout (assay): radiometric filter-binding kinase assay, Kinase HotSpot
Settings in all cases: compound 0.5 µM; ATP 10 µM

Experiment [1] relates to SGK1 (human), O00141 [S422D].
Chain of SGK1 (human), O00141 [S422D] (O00141 whole entry S422D, looked up): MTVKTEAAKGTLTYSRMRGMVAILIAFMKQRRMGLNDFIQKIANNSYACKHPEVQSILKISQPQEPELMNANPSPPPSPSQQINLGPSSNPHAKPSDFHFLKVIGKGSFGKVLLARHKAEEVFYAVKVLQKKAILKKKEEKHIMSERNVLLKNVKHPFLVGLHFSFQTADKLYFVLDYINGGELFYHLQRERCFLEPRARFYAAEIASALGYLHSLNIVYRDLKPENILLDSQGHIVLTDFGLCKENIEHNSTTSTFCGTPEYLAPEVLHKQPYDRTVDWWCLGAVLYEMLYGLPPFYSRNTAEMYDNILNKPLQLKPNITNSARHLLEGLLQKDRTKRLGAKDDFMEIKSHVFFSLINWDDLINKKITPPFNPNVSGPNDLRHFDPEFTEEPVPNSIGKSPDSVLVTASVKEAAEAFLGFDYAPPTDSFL

Structures are written as SMILES.

Data on 28 molecules can be found in the kinase profiling compilation of Christmann-Franck et al. (2016).

Chain of CDK6 CCND1 (human) (P24385 whole entry, looked up): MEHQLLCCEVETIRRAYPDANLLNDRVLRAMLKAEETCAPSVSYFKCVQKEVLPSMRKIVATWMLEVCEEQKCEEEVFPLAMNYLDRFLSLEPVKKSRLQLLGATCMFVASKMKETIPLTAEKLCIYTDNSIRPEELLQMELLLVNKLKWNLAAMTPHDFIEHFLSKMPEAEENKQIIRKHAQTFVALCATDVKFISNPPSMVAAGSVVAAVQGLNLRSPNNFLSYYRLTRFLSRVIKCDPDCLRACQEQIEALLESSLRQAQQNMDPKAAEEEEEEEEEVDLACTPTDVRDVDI
Chain of CDK6 CCND1 (human) (Q00534 whole entry, looked up): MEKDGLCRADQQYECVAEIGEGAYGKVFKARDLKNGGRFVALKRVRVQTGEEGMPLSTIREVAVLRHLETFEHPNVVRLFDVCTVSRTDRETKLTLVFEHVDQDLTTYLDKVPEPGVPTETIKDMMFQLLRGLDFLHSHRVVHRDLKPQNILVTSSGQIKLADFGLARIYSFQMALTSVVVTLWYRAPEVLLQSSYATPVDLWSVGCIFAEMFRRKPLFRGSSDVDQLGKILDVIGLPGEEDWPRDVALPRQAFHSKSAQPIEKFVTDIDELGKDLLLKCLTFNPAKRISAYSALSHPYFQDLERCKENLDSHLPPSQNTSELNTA
Chain of CDK6 CCND3 (human) (P30281 whole entry, looked up): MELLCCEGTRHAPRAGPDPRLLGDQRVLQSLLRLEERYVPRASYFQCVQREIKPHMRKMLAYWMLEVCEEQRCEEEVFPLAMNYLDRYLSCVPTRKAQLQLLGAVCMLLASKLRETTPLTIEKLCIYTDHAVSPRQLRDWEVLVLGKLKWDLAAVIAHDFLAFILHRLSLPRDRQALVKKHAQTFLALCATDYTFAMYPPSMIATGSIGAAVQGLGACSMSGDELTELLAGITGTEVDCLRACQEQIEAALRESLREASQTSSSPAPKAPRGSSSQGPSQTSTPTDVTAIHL
Chain of CDK6 CCND3 (human) (Q00534 whole entry, looked up): as the sequence (Q00534 whole entry, looked up) above
Chain of CDK1 CCNB1 (human) (P06493 whole entry, looked up): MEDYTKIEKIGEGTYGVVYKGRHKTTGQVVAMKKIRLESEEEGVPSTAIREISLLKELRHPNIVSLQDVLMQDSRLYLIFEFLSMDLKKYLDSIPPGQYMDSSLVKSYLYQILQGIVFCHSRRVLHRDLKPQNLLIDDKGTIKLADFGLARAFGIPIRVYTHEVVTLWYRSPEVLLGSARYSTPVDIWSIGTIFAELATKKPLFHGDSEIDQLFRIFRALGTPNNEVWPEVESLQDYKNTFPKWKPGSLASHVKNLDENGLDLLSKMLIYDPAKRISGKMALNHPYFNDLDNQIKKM
Chain of CDK1 CCNB1 (human) (P14635 whole entry, looked up): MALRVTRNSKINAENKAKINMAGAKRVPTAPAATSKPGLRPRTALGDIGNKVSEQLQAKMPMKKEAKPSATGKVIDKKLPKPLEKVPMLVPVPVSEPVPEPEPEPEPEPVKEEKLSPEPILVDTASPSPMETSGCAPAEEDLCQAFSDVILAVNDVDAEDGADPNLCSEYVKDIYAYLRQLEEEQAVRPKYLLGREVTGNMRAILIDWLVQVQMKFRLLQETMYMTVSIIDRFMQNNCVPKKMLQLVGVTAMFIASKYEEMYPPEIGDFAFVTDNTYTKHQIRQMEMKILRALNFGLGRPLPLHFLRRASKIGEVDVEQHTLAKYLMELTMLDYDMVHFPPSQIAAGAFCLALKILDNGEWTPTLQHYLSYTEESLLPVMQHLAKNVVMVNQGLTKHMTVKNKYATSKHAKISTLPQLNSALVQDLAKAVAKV
Chain of CDK1 CCNA2 (human) (P06493 whole entry, looked up): as the sequence (P06493 whole entry, looked up) above
Chain of CDK1 CCNA2 (human) (P20248 whole entry, looked up): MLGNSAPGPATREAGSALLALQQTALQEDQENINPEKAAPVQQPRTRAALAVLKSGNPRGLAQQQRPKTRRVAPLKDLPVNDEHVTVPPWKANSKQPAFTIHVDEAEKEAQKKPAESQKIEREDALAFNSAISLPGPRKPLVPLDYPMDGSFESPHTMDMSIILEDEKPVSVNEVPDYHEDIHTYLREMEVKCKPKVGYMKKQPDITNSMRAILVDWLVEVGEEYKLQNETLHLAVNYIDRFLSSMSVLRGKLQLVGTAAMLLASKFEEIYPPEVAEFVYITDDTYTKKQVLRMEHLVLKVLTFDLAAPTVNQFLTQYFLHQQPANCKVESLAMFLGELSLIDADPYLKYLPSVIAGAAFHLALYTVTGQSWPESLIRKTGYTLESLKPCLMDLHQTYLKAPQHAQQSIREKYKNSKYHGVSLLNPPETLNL
Chain of CDK9 CCNK (human) (O75909 whole entry, looked up): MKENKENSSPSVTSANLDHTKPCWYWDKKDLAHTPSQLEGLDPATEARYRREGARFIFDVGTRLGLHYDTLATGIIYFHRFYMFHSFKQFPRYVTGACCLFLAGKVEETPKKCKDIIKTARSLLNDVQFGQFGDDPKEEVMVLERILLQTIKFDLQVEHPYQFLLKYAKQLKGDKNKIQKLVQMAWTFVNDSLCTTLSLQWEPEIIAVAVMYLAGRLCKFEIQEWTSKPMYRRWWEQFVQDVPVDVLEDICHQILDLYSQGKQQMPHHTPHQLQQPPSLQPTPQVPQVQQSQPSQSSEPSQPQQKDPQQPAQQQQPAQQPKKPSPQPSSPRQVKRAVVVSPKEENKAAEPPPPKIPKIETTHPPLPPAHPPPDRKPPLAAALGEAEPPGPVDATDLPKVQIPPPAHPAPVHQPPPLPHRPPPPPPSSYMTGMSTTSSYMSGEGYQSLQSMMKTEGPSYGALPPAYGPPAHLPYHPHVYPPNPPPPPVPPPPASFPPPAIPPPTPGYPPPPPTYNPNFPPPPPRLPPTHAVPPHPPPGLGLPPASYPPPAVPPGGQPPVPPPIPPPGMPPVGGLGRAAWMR
Chain of CDK9 CCNK (human) (P50750 whole entry, looked up): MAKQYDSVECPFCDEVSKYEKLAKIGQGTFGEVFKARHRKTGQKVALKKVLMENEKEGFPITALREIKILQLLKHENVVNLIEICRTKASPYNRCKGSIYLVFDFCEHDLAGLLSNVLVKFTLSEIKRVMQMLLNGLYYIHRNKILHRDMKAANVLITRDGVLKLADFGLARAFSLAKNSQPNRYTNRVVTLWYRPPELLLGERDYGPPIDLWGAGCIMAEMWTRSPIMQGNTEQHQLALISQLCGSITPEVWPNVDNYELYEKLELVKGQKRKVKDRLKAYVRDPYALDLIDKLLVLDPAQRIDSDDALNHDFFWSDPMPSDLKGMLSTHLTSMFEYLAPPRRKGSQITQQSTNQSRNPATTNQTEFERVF
Chain of DYRK1B (human) (Q9Y463 whole entry, looked up): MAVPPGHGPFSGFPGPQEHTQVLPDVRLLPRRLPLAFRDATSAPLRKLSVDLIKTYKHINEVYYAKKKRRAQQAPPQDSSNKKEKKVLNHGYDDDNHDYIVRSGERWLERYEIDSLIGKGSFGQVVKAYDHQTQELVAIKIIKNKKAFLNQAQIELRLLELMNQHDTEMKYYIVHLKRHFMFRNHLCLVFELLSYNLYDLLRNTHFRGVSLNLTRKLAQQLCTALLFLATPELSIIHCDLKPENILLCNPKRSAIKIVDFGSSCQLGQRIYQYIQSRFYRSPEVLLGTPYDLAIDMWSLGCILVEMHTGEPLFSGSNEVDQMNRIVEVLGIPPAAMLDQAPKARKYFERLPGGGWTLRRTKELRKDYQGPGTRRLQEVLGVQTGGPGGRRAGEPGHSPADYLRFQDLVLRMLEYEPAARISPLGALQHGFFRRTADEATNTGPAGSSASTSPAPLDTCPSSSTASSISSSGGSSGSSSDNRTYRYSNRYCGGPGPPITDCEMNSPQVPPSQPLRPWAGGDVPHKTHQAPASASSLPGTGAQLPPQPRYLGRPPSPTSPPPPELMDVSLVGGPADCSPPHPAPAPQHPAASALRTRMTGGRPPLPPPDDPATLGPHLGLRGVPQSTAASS
Chain of STK33 (human) (Q9BYT3 whole entry, looked up): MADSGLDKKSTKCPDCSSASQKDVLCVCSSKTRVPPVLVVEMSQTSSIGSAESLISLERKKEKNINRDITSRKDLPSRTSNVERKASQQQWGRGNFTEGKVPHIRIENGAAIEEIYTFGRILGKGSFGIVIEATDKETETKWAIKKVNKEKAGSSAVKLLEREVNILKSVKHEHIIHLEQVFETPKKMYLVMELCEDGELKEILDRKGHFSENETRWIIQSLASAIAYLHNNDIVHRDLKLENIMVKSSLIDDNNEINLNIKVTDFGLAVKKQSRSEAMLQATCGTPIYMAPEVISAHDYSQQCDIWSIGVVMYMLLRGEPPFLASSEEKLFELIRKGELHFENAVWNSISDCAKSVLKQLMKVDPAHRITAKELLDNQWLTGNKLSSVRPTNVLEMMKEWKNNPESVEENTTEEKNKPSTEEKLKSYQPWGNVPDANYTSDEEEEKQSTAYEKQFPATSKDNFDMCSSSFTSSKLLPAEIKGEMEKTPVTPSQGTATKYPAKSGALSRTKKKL

With `CC(C)(C)n1nc(Cc2cccc3ccccc23)c2c(N)ncnc21`, the residual activity (usually the signal under treatment as a percentage of the control signal) at CDK1 CCNA2 (human) is 94.8%; on CDK1 CCNB1 (human) it was 107%; on CDK2 CCNA2 (human), 99.4%; on CDK2 CCNE1 (human) it was 89.6%; at CDK3 CCNE1 (human) it was 87.8%; at CDK4 CCND1 (human), 96.7%. In addition, the residual activity is 95.8% on CDK4 CCND3 (human); 109% at CDK5 CDK5R1 p25 (human); 95.6% on CDK5 CDK5R1 p35 (human); 98.6% on CDK6 CCND1 (human); 97.3% on CDK6 CCND3 (human); 100% at CDK7 CCNH MNAT1 (human). Also, the residual activity on CDK9 CCNK (human) was found to be 81.4%; on CDK9 CCNT1 (human) it was 102%; at DYRK1B (human), 98.6%; on LTK (human), 98.2%; on MAP3K7 TAB1 (human) it was 99%; on PRKCH (human), 92.1%. On STK33 (human), the residual activity stood at 99.7%.
As to `O=C(Nc1cccc(Nc2cc(Nc3cccc(C(F)(F)F)c3)ncn2)c1)C1CC1`, the residual activity in [1] came out at 94.8%.
With `Cc1[nH]c(/C=C2\C(=O)Nc3ccc(S(=O)(=O)N(C)c4cccc(Cl)c4)cc32)c(C)c1C(=O)N1CCN(C)CC1`, the residual activity in [1] was determined as 103%.
With `N#C/C(=C\c1ccc(O)c(O)c1)C(=O)NCc1ccccc1`, the residual activity in experiment [1] turned out to be 103%.
Take `COc1ccc(C(=O)Nc2sc3c(c2C(N)=O)CCCC3)cc1OC`: in experiment [1], the residual activity was 98.7%.
Same read-out and setting: under `COc1ccc(COc2ccc(Cc3cnc(N)nc3N)cc2OC)cc1` stands 97.9%; under `C[C@@H]1CCN(C(=O)CC#N)C[C@@H]1N(C)c1ncnc2[nH]ccc12`, 123%.
Regarding `Nc1ccc2ncnc(NCCc3ccc(Oc4ccccc4)cc3)c2c1`, the residual activity in experiment [1] stood at 104%.
For the molecule `O=c1cc(N2CCNCC2)oc2c(-c3ccccc3)cccc12`, the residual activity in experiment [1] amounted to 103%.
As to `CS(=O)(=O)CCNCc1ccc(-c2ccc3ncnc(Nc4ccc(OCc5cccc(F)c5)c(Cl)c4)c3c2)o1`, the residual activity in experiment [1] amounted to 128%.
As to `Nc1nc(Nc2ccc(S(N)(=O)=O)cc2)nn1C(=S)Nc1c(F)cccc1F`, the residual activity in experiment [1] amounted to 48.7%.
The same measure, in the same setting: under `O=C(Nc1cccc(Nc2nccc(Nc3cccc(C(F)(F)F)c3)n2)c1)C1CC1` stands 103%.
Regarding `CCCNC(=O)Nc1ccc(Oc2ncnc3cc(OC)c(OC)cc23)cc1Cl`, in experiment [1], the residual activity came out at 96.2%.
Still for that read-out and setting: under `COc1ccc(-c2cnc3c(-c4ccsc4)cnn3c2)cc1` stands 81.8%; under `Cc1ccc(S(=O)(=O)/C=C/C#N)cc1`, 98.7%.
`CO[C@H]1CC2CC[C@@H](C)[C@@](O)(O2)C(=O)C(=O)N2CCCC[C@H]2C(=O)OC([C@H](C)C[C@@H]2CC[C@@H](O)[C@H](OC)C2)CC(=O)[C@H](C)/C=C(\C)[C@@H](O)[C@@H](OC)C(=O)[C@H](C)C[C@H](C)/C=C/C=C/C=C/1C` (stereo partly specified): the residual activity in [1] stood at 101%.
Regarding `COc1ccc(OC)c2c(=S)c3ccccc3[nH]c12`, in experiment [1], the residual activity was 125%.
In the case of `CC(C)[C@H](CO)Nc1nc(Nc2cccc(Cl)c2)c2ncn(C(C)C)c2n1`, the residual activity in [1] was 99.1%.
Regarding `Cc1ccc(NC2=CC(=O)c3sc(C)nc3C2=O)cc1`, the residual activity in experiment [1] was 114%.
With `Cc1cccc(-c2nc(C(C)(C)C)[nH]c2-c2ccc3c(c2)OCO3)n1`, the residual activity in [1] was found to be 99.6%.
`COc1ccc(S(=O)(=O)N(CCO)c2ccccc2CN(C)C/C=C/c2ccc(Cl)cc2)cc1`: the residual activity in [1] came out at 103%.
The same measure, in the same setting: under `O=C1Cc2c([nH]c3ccc([N+](=O)[O-])cc23)-c2ccccc2N1` stands 96%.
`O=C1Nc2ccccc2/C1=C\c1c(Cl)[nH]c2ccccc12`: in experiment [1], the residual activity came to 116%.
For the molecule `Oc1ccc(Nc2nc(-c3ccc(Cl)cc3)cs2)cc1`, the residual activity in [1] was 106%.
On to `CCN(CC)CCNC(=O)c1c(C)[nH]c(/C=C2\C(=O)Nc3ccc(F)cc32)c1C`, for which the residual activity in experiment [1] was determined as 62.8%.
Take `CC[n+]1c(/C=C/N(C)c2ccccc2)n(-c2ccccc2)c2ccc(-c3nc4ccccc4s3)cc21`: the residual activity in experiment [1] worked out at 97.2%.
Consider `O=S(=O)(c1cccc2cnccc12)N1CCCNCC1`, for which the residual activity in [1] was determined as 96.6%.
Still for that read-out and setting: under `O=C1C(Cl)=C(N2C(=O)CCC2=O)C(=O)c2ccccc21` stands 104%.
